In patent US20140171357A1, “VANCOMYCIN DERIVATIVES” (Seachald Pharmaceuticals, Inc., priority 2011, published 2014):
Converted amounts (≈) assume the structure as drawn.

Assays:
[1] = system: heterogeneous VISA (hVISA, 10); experiment: MIC broth microdilution, hVISA
[2] = system: β-hemolytic streptococci (23); experiment: MIC broth microdilution, β-hemolytic streptococci; details: for MIC 50% / MIC 90%: β-hemolytic streptococci (23), MHB + lysed horse blood
[3] = system: S. aureus ATCC 25923; experiment: Neutropenic murine thigh infection model; details: for AUCc-t (AUC difference between control and treated animals): 24 h time kill
[4] = system: vancomycin-intermediate S. aureus (VISA, 5); experiment: MIC broth microdilution, VISA
[5] = system: vancomycin-susceptible E. faecalis (23); experiment: MIC broth microdilution, vancomycin-susceptible E. faecalis; details: E. faecalis, vancomycin-susceptible (23)
[6] = system: Staphylococcus aureus (65 strains); experiment: MIC broth microdilution, S. aureus all isolates; details: S. aureus (65), all resistance subsets
[7] = system: S. pneumoniae (22); experiment: MIC broth microdilution, S. pneumoniae; details: S. pneumoniae (22); MHB + lysed horse blood
[8] = system: Staphylococcus epidermidis (43 strains); experiment: MIC broth microdilution, S. epidermidis; details: S. epidermidis (43)
[9] = system: VanA vancomycin-resistant E. faecium (10); experiment: MIC broth microdilution, VanA E. faecium; details: E. faecium, VanA (10)
[10] = system: methicillin-susceptible S. aureus (MSSA, 22); experiment: MIC broth microdilution, MSSA; details: MSSA (22)
[11] = system: VanC enterococci (22); experiment: MIC broth microdilution, vanC-carrying enterococci; details: VanC enterococci (22)
[12] = system: methicillin-resistant S. aureus (MRSA, 22); experiment: MIC broth microdilution, MRSA; details: MRSA (22)
[13] = system: vancomycin-resistant S. aureus (VRSA, 6); experiment: MIC broth microdilution, VRSA
[14] = system: VanB vancomycin-resistant E. faecium (10); experiment: MIC broth microdilution, VanB E. faecium; details: E. faecium, VanB (10)
[15] = system: VanB vancomycin-resistant E. faecalis (12); experiment: MIC broth microdilution, VanB E. faecalis; details: E. faecalis, VanB (12)
[16] = system: vancomycin-susceptible E. faecium (21); experiment: MIC broth microdilution, vancomycin-susceptible E. faecium; details: E. faecium, vancomycin-susceptible (21)
[17] = system: VanA vancomycin-resistant E. faecalis (11); experiment: MIC broth microdilution, VanA E. faecalis; details: for MIC 50% / MIC 90%: E. faecalis, VanA (11)
[18] = 1 mg/kg single intraperitoneal dose
[19] = 4 mg/kg single intraperitoneal dose
[20] = 16 mg/kg single intraperitoneal dose

CNC(CC(C)C)C(=O)NC1C(=O)NC(CC(N)=O)C(=O)NC2C(=O)NC3C(=O)NC(C(=O)NC(C(=O)NCCOCCOCCN)c4cc(O)cc(O)c4-c4cc3ccc4O)C(O)c3ccc(c(Cl)c3)Oc3cc2cc(c3OC2OC(CO)C(O)C(O)C2OC2CC(C)(NCc3ccc(OCc4ccc(Cl)c(Cl)c4)cc3)C(O)C(C)O2)Oc2ccc(cc2Cl)C1O (stereo not shown) [Compound 27]
MIC 50% [1]: 0.06 µg/mL (≈ 0.0325 µM)
MIC 90% [1]: 0.06 µg/mL (≈ 0.0325 µM)
MIC 50% [2]: 0.06 µg/mL
MIC 90% [2]: 0.12 µg/mL
Max Kill (maximum decrease from initial infection level) [3, 18]: 0.45 Log10 CFU/thigh
AUCc-t (AUC difference between control and treated animals) [3, 18]: 19.8 (Log10 CFU/thigh)/hr
Max Kill (maximum decrease from initial infection level) [3, 19]: −0.008 Log10 CFU/thigh
AUCc-t (AUC difference between control and treated animals) [3, 19]: 18.8 (Log10 CFU/thigh)/hr
Max Kill (maximum decrease from initial infection level) [3, 20]: −0.35 Log10 CFU/thigh
AUCc-t (AUC difference between control and treated animals) [3, 20]: 36.9 (Log10 CFU/thigh)/hr
MIC 50% [4]: 0.12 µg/mL (≈ 0.0651 µM)
MIC 50% [5]: 0.12 µg/mL (≈ 0.0651 µM)
MIC 90% [5]: 0.12 µg/mL (≈ 0.0651 µM)
MIC 50% [6]: 0.06 µg/mL (≈ 0.0325 µM)
MIC 90% [6]: 0.25 µg/mL (≈ 0.136 µM)
MIC 50% [7]: 0.03 µg/mL
MIC 90% [7]: 0.06 µg/mL
MIC 50% [8]: 0.03 µg/mL (≈ 0.0163 µM)
MIC 90% [8]: 0.03 µg/mL (≈ 0.0163 µM)
MIC 50% [9]: 0.5 µg/mL (≈ 0.271 µM)
MIC 90% [9]: 1 µg/mL (≈ 0.542 µM)
MIC 50% [10]: 0.06 µg/mL (≈ 0.0325 µM)
MIC 90% [10]: 0.06 µg/mL (≈ 0.0325 µM)
MIC 50% [11]: 0.06 µg/mL (≈ 0.0325 µM)
MIC 90% [11]: 0.25 µg/mL (≈ 0.136 µM)
MIC 50% [12]: 0.06 µg/mL (≈ 0.0325 µM)
MIC 90% [12]: 0.06 µg/mL (≈ 0.0325 µM)
MIC 50% [13]: 2 µg/mL (≈ 1.08 µM)
MIC 50% [14]: 0.03 µg/mL (≈ 0.0163 µM)
MIC 90% [14]: 0.03 µg/mL (≈ 0.0163 µM)
MIC 50% [15]: 0.12 µg/mL (≈ 0.0651 µM)
MIC 90% [15]: 0.12 µg/mL (≈ 0.0651 µM)
MIC 50% [16]: 0.03 µg/mL (≈ 0.0163 µM)
MIC 90% [16]: 0.06 µg/mL (≈ 0.0325 µM)
MIC 50% [17]: 2 µg/mL (≈ 1.08 µM)
MIC 90% [17]: 2 µg/mL (≈ 1.08 µM)
fold higher MIC50/MIC90 against VanA-type E. faecalis compared with wildtype (susceptible) strains ([17]; VanA vs wildtype E. faecalis): 16 fold
concentration inhibiting all strains ([17]; VanA-type E. faecalis): ≤ 2 µg/mL

CNC(CC(C)C)C(=O)NC1C(=O)NC(CC(N)=O)C(=O)NC2C(=O)NC3C(=O)NC(C(=O)NC(C(=O)O)c4cc(O)c(CNCCOCCOCCN)c(O)c4-c4cc3ccc4O)C(O)c3ccc(c(Cl)c3)Oc3cc2cc(c3OC2OC(CO)C(O)C(O)C2OC2CC(C)(NCc3ccc(OCc4ccc(Cl)c(Cl)c4)cc3)C(O)C(C)O2)Oc2ccc(cc2Cl)C1O (stereo not shown) [Compound 28]
MIC 50% [1]: 0.06 µg/mL (≈ 0.032 µM)
MIC 90% [1]: 0.06 µg/mL (≈ 0.032 µM)
fold more potent than teicoplanin and daptomycin ([2]; β-hemolytic streptococci): two- to four
fold more potent than vancomycin ([2]; β-hemolytic streptococci): four- to eight
MIC 50% [2]: 0.03 µg/mL
MIC 90% [2]: 0.06 µg/mL
Max Kill (maximum decrease from initial infection level) [3, 18]: 0.61 Log10 CFU/thigh
AUCc-t (AUC difference between control and treated animals) [3, 18]: 19.1 (Log10 CFU/thigh)/hr
Max Kill (maximum decrease from initial infection level) [3, 19]: 0.75 Log10 CFU/thigh
AUCc-t (AUC difference between control and treated animals) [3, 19]: 17.3 (Log10 CFU/thigh)/hr
Max Kill (maximum decrease from initial infection level) [3, 20]: −0.02 Log10 CFU/thigh
AUCc-t (AUC difference between control and treated animals) [3, 20]: 38.2 (Log10 CFU/thigh)/hr
MIC 50% [4]: 0.12 µg/mL (≈ 0.064 µM)
MIC 50% [5]: 0.06 µg/mL (≈ 0.032 µM)
MIC 90% [5]: 0.12 µg/mL (≈ 0.064 µM)
MIC 50% [6]: 0.06 µg/mL (≈ 0.032 µM)
MIC 90% [6]: 0.12 µg/mL (≈ 0.064 µM)
MIC 50% [7]: 0.03 µg/mL
MIC 90% [7]: 0.06 µg/mL
MIC 50% [8]: 0.03 µg/mL (≈ 0.016 µM)
MIC 90% [8]: 0.03 µg/mL (≈ 0.016 µM)
MIC 50% [9]: 0.5 µg/mL (≈ 0.267 µM)
MIC 90% [9]: 1 µg/mL (≈ 0.533 µM)
MIC 50% [10]: 0.06 µg/mL (≈ 0.032 µM)
MIC 90% [10]: 0.06 µg/mL (≈ 0.032 µM)
MIC 50% [11]: 0.06 µg/mL (≈ 0.032 µM)
MIC 90% [11]: 0.25 µg/mL (≈ 0.133 µM)
MIC 50% [12]: 0.06 µg/mL (≈ 0.032 µM)
MIC 90% [12]: 0.06 µg/mL (≈ 0.032 µM)
MIC 50% [13]: 2 µg/mL (≈ 1.07 µM)
MIC 50% [14]: 0.03 µg/mL (≈ 0.016 µM)
MIC 90% [14]: 0.06 µg/mL (≈ 0.032 µM)
MIC 50% [15]: 0.12 µg/mL (≈ 0.064 µM)
MIC 90% [15]: 0.12 µg/mL (≈ 0.064 µM)
MIC 50% [16]: 0.03 µg/mL (≈ 0.016 µM)
MIC 90% [16]: 0.06 µg/mL (≈ 0.032 µM)
MIC 50% [17]: 2 µg/mL (≈ 1.07 µM)
MIC 90% [17]: 4 µg/mL (≈ 2.13 µM)
